Tests used:
GLP-1R [1] = molecular target: GLP-1R (Homo sapiens, UniProt P43220, W39A); assay: Whole-cell binding assay, competition with 125I-GLP-1(7-36)NH2; design: Flag; expressed in transfected cells; details: GLP-1R W39A; CHO-K1
Procedure, shortened: (§1)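 CHO-K1 cells transiently transfected with WT or mutant receptor constructs, washed in F-12 with 0.1% BSA or casein/33 mM HEPES and incubated 2 h at 37 °C. Bound radioactivity counted after Triton lysis; data normalized to WT and fitted to a three-parameter logistic equation.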

GLP-1R [2] = molecular target: GLP-1R (Homo sapiens, UniProt P43220, Q210A); assay: as above; design: Flag; expressed in transfected cells; details: GLP-1R Q210A, CHO-K1
Chain of GLP-1R (Homo sapiens, UniProt P43220, Q210A) (P43220 24-463 Q210A): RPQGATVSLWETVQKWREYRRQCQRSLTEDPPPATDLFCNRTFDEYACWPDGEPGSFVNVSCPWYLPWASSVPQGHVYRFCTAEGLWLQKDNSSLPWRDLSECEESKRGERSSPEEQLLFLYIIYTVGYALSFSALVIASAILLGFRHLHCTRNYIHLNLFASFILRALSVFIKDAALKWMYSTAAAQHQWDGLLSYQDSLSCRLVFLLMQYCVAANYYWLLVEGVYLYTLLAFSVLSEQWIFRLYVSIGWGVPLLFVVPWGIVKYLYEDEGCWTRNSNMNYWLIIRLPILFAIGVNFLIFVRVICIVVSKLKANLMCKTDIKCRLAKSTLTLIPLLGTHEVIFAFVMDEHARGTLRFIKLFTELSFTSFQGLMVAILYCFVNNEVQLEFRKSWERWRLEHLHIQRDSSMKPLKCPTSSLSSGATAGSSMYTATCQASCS
Procedure, shortened: as §1

GLP-1R [3] = molecular target: GLP-1R (Homo sapiens, UniProt P43220, Y205A); assay: as above; design: Flag; expressed in transfected cells; details: GLP-1R Y205A, CHO-K1
Chain of GLP-1R (Homo sapiens, UniProt P43220, Y205A) (P43220 24-463 Y205A): as the sequence (P43220 24-463 Q210A) above, with Y182A, A187Q counted along it
Procedure, shortened: as §1

GLP-1R [4] = molecular target: GLP-1R (Homo sapiens, UniProt P43220, W91A); assay: as above; design: Flag; expressed in transfected cells; details: GLP-1R W91A, CHO-K1
Chain of GLP-1R (Homo sapiens, UniProt P43220, W91A) (P43220 24-463 W91A): as the sequence (P43220 24-463 Q210A) above, with W68A, A187Q counted along it
Procedure, shortened: as §1

GLP-1R [5] = molecular target: GLP-1R (Homo sapiens, UniProt P43220, K202A); assay: as above; design: Flag; expressed in transfected cells; details: GLP-1R K202A, CHO-K1
Chain of GLP-1R (Homo sapiens, UniProt P43220, K202A) (P43220 24-463 K202A): as the sequence (P43220 24-463 Q210A) above, with K179A, A187Q counted along it
Procedure, shortened: as §1

GLP-1R [6] = molecular target: GLP-1R (Homo sapiens, UniProt P43220, D198A/K202A/Y145A); assay: as above; design: Flag; expressed in transfected cells; details: GLP-1R Y145A/D198A/K202A, CHO-K1
Chain of GLP-1R (Homo sapiens, UniProt P43220, D198A/K202A/Y145A) (P43220 24-463 Y145A/D198A/K202A): as the sequence (P43220 24-463 Q210A) above, with Y122A, D175A, K179A, A187Q counted along it
Procedure, shortened: as §1

GLP-1R [7] = molecular target: GLP-1R (Homo sapiens, UniProt P43220, D198A); assay: as above; design: Flag; expressed in transfected cells; details: GLP-1R D198A, CHO-K1
Chain of GLP-1R (Homo sapiens, UniProt P43220, D198A) (P43220 24-463 D198A): as the sequence (P43220 24-463 Q210A) above, with D175A, A187Q counted along it
Procedure, shortened: as §1

GLP-1R [8] = molecular target: GLP-1R (Homo sapiens, UniProt P43220, R134A); assay: as above; design: Flag; expressed in transfected cells; details: GLP-1R R134A, CHO-K1
Chain of GLP-1R (Homo sapiens, UniProt P43220, R134A) (P43220 24-463 R134A): as the sequence (P43220 24-463 Q210A) above, with R111A, A187Q counted along it
Procedure, shortened: as §1

GCGR [9] = molecular target: GCGR (Homo sapiens, UniProt P47871, R199A); assay: Whole-cell binding assay, competition with 125I-GCG; design: V5 (C); 6×His (C); expressed in transfected cells; host or cells: CHO-K1; details: GCGR R199A, CHO-K1
Chain of GCGR (Homo sapiens, UniProt P47871, R199A) (P47871 26-477 R199A): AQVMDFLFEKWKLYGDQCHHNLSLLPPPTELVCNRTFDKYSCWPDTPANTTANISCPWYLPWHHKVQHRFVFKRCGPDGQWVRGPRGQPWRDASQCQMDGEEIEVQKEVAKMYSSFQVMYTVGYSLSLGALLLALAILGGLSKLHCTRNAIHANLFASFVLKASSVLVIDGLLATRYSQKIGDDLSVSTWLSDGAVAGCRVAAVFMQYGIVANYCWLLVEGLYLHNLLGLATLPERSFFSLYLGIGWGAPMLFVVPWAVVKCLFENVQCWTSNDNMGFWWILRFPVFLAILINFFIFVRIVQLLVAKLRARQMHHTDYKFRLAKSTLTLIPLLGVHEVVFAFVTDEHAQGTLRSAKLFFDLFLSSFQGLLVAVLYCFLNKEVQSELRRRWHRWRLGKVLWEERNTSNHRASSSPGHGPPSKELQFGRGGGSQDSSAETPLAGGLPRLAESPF
Procedure, shortened: as §1

GCGR [10] = molecular target: GCGR (Homo sapiens, UniProt P47871, Y145A); assay: as above; design: V5 (C); 6×His (C); expressed in transfected cells; host or cells: CHO-K1; details: GCGR Y145A, CHO-K1
Chain of GCGR (Homo sapiens, UniProt P47871, Y145A) (P47871 26-477 Y145A): as the sequence (P47871 26-477 R199A) above, with Y120A, A174R counted along it
Procedure, shortened: as §1

GCGR [11] = molecular target: GCGR (Homo sapiens, UniProt P47871, D195A); assay: as above; design: V5 (C); 6×His (C); expressed in transfected cells; host or cells: CHO-K1; details: GCGR D195A; CHO-K1; read-out: binding pIC50 (converted)
Chain of GCGR (Homo sapiens, UniProt P47871, D195A) (P47871 26-477 D195A): as the sequence (P47871 26-477 R199A) above, with D170A, A174R counted along it
Procedure, shortened: as §1

GCGR [12] = molecular target: GCGR (Homo sapiens, UniProt P47871, Y202A); assay: as above; design: V5 (C); 6×His (C); expressed in transfected cells; host or cells: CHO-K1; details: GCGR Y202A, CHO-K1
Chain of GCGR (Homo sapiens, UniProt P47871, Y202A) (P47871 26-477 Y202A): as the sequence (P47871 26-477 R199A) above, with A174R, Y177A counted along it
Procedure, shortened: as §1

GCGR [13] = molecular target: GCGR (Homo sapiens, UniProt P47871, D195A/Q142A/R199A); assay: as above; design: V5 (C); 6×His (C); expressed in transfected cells; host or cells: CHO-K1; details: GCGR Q142A/D195A/R199A, CHO-K1
Chain of GCGR (Homo sapiens, UniProt P47871, D195A/Q142A/R199A) (P47871 26-477 Q142A/D195A/R199A): as the sequence (P47871 26-477 R199A) above, with Q117A, D170A counted along it
Procedure, shortened: as §1

GCGR [14] = molecular target: GCGR (Homo sapiens, UniProt P47871, Y138A); assay: as above; design: V5 (C); 6×His (C); expressed in transfected cells; host or cells: CHO-K1; details: GCGR Y138A, CHO-K1
Chain of GCGR (Homo sapiens, UniProt P47871, Y138A) (P47871 26-477 Y138A): as the sequence (P47871 26-477 R199A) above, with Y113A, A174R counted along it
Procedure, shortened: as §1

[15] = read-out: binding pIC50 (converted)

Chain of GLP-1R (Homo sapiens, UniProt P43220, W39A) (P43220 24-463 W39A): as the sequence (P43220 24-463 Q210A) above, with W16A, A187Q counted along it

CCCCCCCCCCCCCCCC(=O)N[C@@H](CCC(=O)NCCCC[C@H](NC(=O)[C@H](CC(=O)O)NC(=O)[C@H](CO)NC(=O)[C@@H](NC(=O)[C@H](Cc1ccccc1)NC(=O)[C@@H](NC(=O)CNC(=O)[C@H](CCC(N)=O)NC(=O)C(C)(C)NC(=O)[C@@H](N)Cc1c[nH]cn1)[C@@H](C)O)[C@@H](C)O)C(=O)N[C@@H](CO)C(=O)N[C@@H](CCCCN)C(=O)N[C@@H](Cc1ccc(O)cc1)C(=O)N[C@@H](CC(C)C)C(=O)N[C@@H](CC(=O)O)C(=O)N[C@@H](CCC(=O)O)C(=O)N[C@@H](CCCNC(=N)N)C(=O)N[C@@H](C)C(=O)N[C@@H](C)C(=O)N[C@@H](CCC(N)=O)C(=O)N[C@@H](CC(=O)O)C(=O)N[C@@H](Cc1ccccc1)C(=O)N[C@H](C(=O)N[C@@H](CCC(N)=O)C(=O)N[C@@H](Cc1c[nH]c2ccccc12)C(=O)N[C@@H](CC(C)C)C(=O)N[C@@H](CC(C)C)C(=O)N[C@@H](CC(=O)O)C(=O)NCC(=O)NCC(=O)N1CCC[C@H]1C(=O)N[C@@H](CO)C(=O)N[C@@H](CO)C(=O)NCC(=O)N[C@@H](C)C(=O)N1CCC[C@H]1C(=O)N1CCC[C@H]1C(=O)N1CCC[C@H]1C(=O)N[C@@H](CO)C(N)=O)C(C)C)C(=O)O [Peptide 20]
binding Span (GLP-1R [1]): N.B.
binding pIC50 (GLP-1R [1]): N.B.
binding Span (GLP-1R [2]): 100.10 ± 5.13 % WT
IC50 (GLP-1R [2]; [15]): 4.07 nM
binding Span (GLP-1R [3]): 6.01 ± 3.17 % WT
IC50 (GLP-1R [3]; [15]): 50.1 nM
binding Span (GLP-1R [4]): 6.51 ± 2.59 % WT
IC50 (GLP-1R [4]; [15]): 2.04 nM
binding Span (GLP-1R [5]): 15.32 ± 1.82 % WT
IC50 (GLP-1R [5]; [15]): 3.47 nM
binding Span (GLP-1R [6]): 10.85 ± 36.78 % WT
IC50 (GLP-1R [6]; [15]): 1780 nM
binding Span (GLP-1R [7]): 1.88 ± 1.66 % WT
IC50 (GLP-1R [7]; [15]): 52.5 nM
binding Span (GLP-1R [8]): 73.44 ± 3.42 % WT
IC50 (GLP-1R [8]; [15]): 3.02 nM
binding Span (GCGR [9]): 59.87 ± 5.43 % WT
IC50 (GCGR [9]; [15]): 178 nM
binding Span (GCGR [10]): 4.34 ± 3.92 % WT
IC50 (GCGR [10]; [15]): 0.457 nM
IC50 (GCGR [11]): 25.7 nM
binding Span (GCGR [12]): 5.12 ± 1.71 % WT
IC50 (GCGR [12]; [15]): 18.6 nM
binding Span (GCGR [13]): 24.37 ± 1.80 % WT
IC50 (GCGR [13]; [15]): 30.2 nM
binding Span (GCGR [14]): 2.08 ± 2.48 % WT
IC50 (GCGR [14]; [15]): 1.15 nM

From publication PMC8881610 (Nature Communications, 2022)
